# Laboratory results from patent publication US20130237609A1, “CELLULOSE DERIVATIVES FOR ENHANCING BIOAVAILABILITY OF FLAVONOIDS” (priority 2011, published 2013).
# Where two headings read alike, the source gives them in different places.
# Experiments:
# [1] = Contact angle of water on spin-coated films; type: physicochemical; details: Cur/polymer weight ratio, PVP samples: initial value
# [2] = Curcumin stability in pH 7.4 buffer, HPLC after EtOH dilution; type: physicochemical; details: 24 h, room temperature, EtOH dilution before measurement
# Procedure: […]. Samples were incubated at room temperature for indicated times. After incubation, the reaction mixtures were diluted by 1 mL of ethanol and the UV-Vis absorption of the diluted solution was measured; then the diluted solution was filtered through a 1 μm PVDF membrane filter, and the filtrate was analyzed by HP LC. HPLC was performed with an Agilent 1200 series liquid chromatograph equipped with a 1200 quaternary pump, a variable wavelength UV/Vis detector and an Eclipse XDB-C18 column (150×4.6 mm, 5 μm particle size) using the mixture of 40% THF, 60% water and 1% acetic acid (pH 3.0) as mobile phase.
# (Wang 1997). Such chemical degradation is likely the result of retro-aldol reactions. (Priyadarsini 2009). […] This experiment differs from the literature report in that the inventors use ethanol to dilute the incubated aqueous curcumin solution just prior to measurement, to make sure that any crystallized curcumin is re-dissolved for detection. […]
# [3] = Curcumin stability in buffer, UV-Vis after EtOH dilution; type: physicochemical
# [4] = Curcumin release profile, pH 6.8 buffer; type: physicochemical; details: pH 6.8, UV-Vis
# [5] = Curcumin release profile, pH 1.2 buffer; type: physicochemical; details: polymer label = amorphous blend of curcumin with that polymer
# [6] = cited from earlier work
# [7] = formulated as nanocrystals, solid dispersion in HPMCAS, nanoemulsion (Onoue 2010); cited from earlier work
# [8] = with piperine as metabolic inhibitor, in humans; cited from earlier work
# [9] = pH 7.4 buffer; cited from earlier work
# [10] = Curcumin stability in buffer (degradation plus crystallization), UV-Vis, no EtOH added; details: after 5 h, no EtOH dilution
# [11] = physchem
compound,measurement,setting,value
"COc1cc(/C=C/C(=O)CC(=O)/C=C/c2ccc(O)c(OC)c2)ccc1O [Curcumin, 1,7-bis(4-hydroxy-3-methoxyphenyl)-1,6-heptadiene-3,5-dione]",contact angle of water on film,[1],102 °
same,"curcumin degraded (HPLC, curcumin peak RT 6.0 min)",[2],36%
same,Cur degraded (UV-Vis),"[3]; pH 6.8, after 5 h, EtOH dilution",7%
same,Cur degraded (UV-Vis),"[3]; pH 7.4, after 5 h, EtOH dilution",16%
same,Cur degraded (UV-Vis),"[3]; pH 7.4 buffer, 24 h, EtOH dilution before measurement",33%
same,Cur release concentration,[4],below the UV/Vis detection limit
same,dissolution,[5],virtually no dissolution
same,Solubility,[6],3 µg/mL
same,improvement of oral bioavailability of curcumin,[7],9-16 fold
same,improvement of curcumin oral bioavailability,[8],up to 20 fold
same,half-life of curcumin,[9],5.4 min
same,curcumin remained in solution,[10]; pH 6.8 buffer,~44%
same,curcumin remained in solution,[10]; pH 7.4 buffer,around 40%
O=c1oc2c(O)c(O)cc3c(=O)oc4c(O)c(O)cc1c4c23 [Ellagic Acid],Solubility,[6],10 µg/mL
O=c1c(O)c(-c2ccc(O)c(O)c2)oc2cc(O)cc(O)c12 [Quercetin],Solubility,[6],0.4 µg/mL
Oc1ccc(C=Cc2cc(O)cc(O)c2)cc1 [Resveratrol],Solubility,[6],<0.1 µg/mL
COC1=CC(=O)C[C@@H](C)[C@]12Oc1c(Cl)c(OC)cc(OC)c1C2=O [griseofulvin],Solubility,[11]; solubility of crystalline griseofulvin,12 µg/mL
same,Solubility,[11]; solubility of griseofulvin in the polymer matrix,≤ 30000 µg/mL
